{
  "source": "patent US20260034153A1",
  "about": "“Cerebral Blood Flow Augmenter, Brain Activity Promoter, and Vigilance Improver” (Mitsui DM Sugar Co., Ltd., priority 2022, published 2026)",
  "key": {"healthy men and women [1]": {"system": "healthy men and women", "assay": "Digit vigilance task (DVT) response time after intake of test food, crossover test", "assay_type": "in vivo, human", "conditions": "10.0 g in 100 mL water taken orally before 2nd DVT; 5 DVTs, one per hour; 64 subjects; FIG. 1", "protocol": "As the subjects, 64 healthy men and women of 20 to 60 years old were employed. The effects of intake of isomaltulose on cerebral blood flow and brain activity were evaluated based on measurement of the response time to a cognitive task (Digit vigilance task (DVT)) and change of the cerebral blood flow in accordance with the following test. Test methods are more specifically shown below. In the test, each block including the steps shown in Table 1 was performed in one hour, and the 1st block to the 5th block were continuously performed on the same day. […] Before the start of the 2nd DVT, an aqueous solution prepared by dissolving 10.0 g of isomaltulose in 100 mL of water was given as a test food. After the completion of DVT and before the next DVT, the Uchida Kraepelin test was performed. The Uchida Kraepelin test is a test of adjacent single-digit addition. In this Example, the test was performed in order to apply a load such as fatigue to the subject in order to control the break time. DVT is a task mainly used for measuring the vigilance (Non Patent Literature 1 (Joel S. Warm et al., Vigilance requires hard mental work and is stressful, Human Factors, Vol. 50 (3), pp. 433-41, 2008)). […] The time from display of the number or character to the subject's response is measured. […]"}, "healthy men and women [2]": {"system": "healthy men and women", "assay": "Change in cerebral blood flow in the dorsal lateral prefrontal area during DVT, measured by fNIRS (HOT-2000)", "assay_type": "in vivo, human", "conditions": "throughout 5 DVTs, compared to glucose intake group, FIGS. 2 and 3", "quoted_text": "The subjects mentioned above were instructed to take a test diet containing glucose instead of isomaltulose on another day and the same test was performed (crossover test). They constituted a control group.\nUsing a brain activity measuring apparatus (HOT-2000, manufactured by NeU Corporation) based on fNIRS (near-Infrared spectroscopy), a change in cerebral blood flow in the dorsal lateral prefrontal area was measured during DVT. According to this apparatus, a change in hemoglobin concentration in blood can be detected by irradiation with near-infrared light, with the result that a change in cerebral blood flow in an active area of the brain can be measured."}, "healthy men and women [3]": {"system": "healthy men and women", "assay": "Subjective questionnaire survey (VAS method) after the task", "assay_type": "in vivo, human", "conditions": "questionnaire at 3rd to 5th block; compared to glucose control group", "quoted_text": "As the subjects, 64 healthy men and women of 20 to 60 years old were employed. The effects of intake of isomaltulose on cerebral blood flow and brain activity were evaluated based on measurement of the response time to a cognitive task (Digit vigilance task (DVT)) and change of the cerebral blood flow in accordance with the following test. Test methods are more specifically shown below. In the test, each block including the steps shown in Table 1 was performed in one hour, and the 1st block to the 5th block were continuously performed on the same day. […] Before the start of the 2nd DVT, an aqueous solution prepared by dissolving 10.0 g of isomaltulose in 100 mL of water was given as a test food. After the completion of DVT and before the next DVT, the Uchida Kraepelin test was performed. The Uchida Kraepelin test is a test of adjacent single-digit addition. In this Example, the test was performed in order to apply a load such as fatigue to the subject in order to control the break time. First, “Last night, did you sleep better than usual?” was asked. After DVT or Uchida Kraepelin test, the survey for asking subjectivity of the subjects was conducted as to “How are you feeling right now?”, “Are you feeling tired right now?”, “Are you feeling irritated right now?”, “Are you feeling sleepy right now?”, and “Did you work diligently on the task until the end?”. […]"}, "[4]": {"conditions": "fraction of the hydrolysis rate of sucrose; cited from earlier work"}},
  "data": [
    {"smiles": "O=C(CO)[C@@H](O)[C@H](O)[C@H](O)CO[C@H]1O[C@H](CO)[C@@H](O)[C@H](O)[C@H]1O", "note": "[isomaltulose, 6-O-α-D-glucopyranosyl-D-fructose]", "values": [
      {"measurement": "response time in DVT (change of average response time relative to 1st DVT)", "setting": "healthy men and women [1]", "value": "less likely to increase"},
      {"measurement": "change in cerebral blood flow during DVT (average 0 to 120 seconds)", "setting": "healthy men and women [2]", "value": "significantly large"},
      {"measurement": "answer to question \"have you dealt with the task diligently to the end?\"", "setting": "healthy men and women [3]", "value": "dealt with the task diligently"},
      {"measurement": "hydrolysis rate relative to sucrose", "setting": "[4]", "value": "⅕"}
    ]}
  ]
}
